Measurements from PubChem BioAssay AID1745844 (Carcinogenic Potency Database (CPDB), 2022).
The source made the active and inactive calls. How the calls were made is not given here.

System: rodent lifetime carcinogenesis bioassay, tumor incidence TD50
Assay: carcinogenic potency in animals, long-term in vivo studies, CPDB compilation (AID 1745844)
[1] = mouse, strain B6AKF1, females, oral dosing, site: any site (literature study), lesion: several types, types named in the paper, dosed 76 weeks, study length 76 weeks
[2] = mouse, strain B6AKF1, females, oral dosing, site: liver, lesion: hepatoma, dosed 76 weeks, study length 76 weeks
[3] = mouse, strain B6AKF1, females, oral dosing, site: lung, lesion: adenoma, dosed 76 weeks, study length 76 weeks
[4] = mouse, strain B6AKF1, males, oral dosing, site: any site (literature study), lesion: several types, types named in the paper, dosed 76 weeks, study length 76 weeks
[5] = mouse, strain B6AKF1, males, oral dosing, site: liver, lesion: hepatoma, dosed 76 weeks, study length 76 weeks
[6] = mouse, strain B6AKF1, males, oral dosing, site: lung, lesion: adenoma, dosed 76 weeks, study length 76 weeks
[7] = mouse, strain B6C3F1, females, oral dosing, site: any site (literature study), lesion: several types, types named in the paper, dosed 76 weeks, study length 76 weeks
[8] = mouse, strain B6C3F1, females, oral dosing, site: liver, lesion: hepatoma, dosed 76 weeks, study length 76 weeks
[9] = mouse, strain B6C3F1, females, oral dosing, site: lung, lesion: adenoma, dosed 76 weeks, study length 76 weeks
[10] = mouse, strain B6C3F1, males, oral dosing, site: any site (literature study), lesion: several types, types named in the paper, dosed 76 weeks, study length 76 weeks
[11] = mouse, strain B6C3F1, males, oral dosing, site: liver, lesion: hepatoma, dosed 76 weeks, study length 76 weeks
[12] = mouse, strain B6C3F1, males, oral dosing, site: lung, lesion: adenoma, dosed 76 weeks, study length 76 weeks

## S=c1[nH]c2ccccc2s1
[1]
  carcinogen call: negative (inactive)
[2]
  carcinogen call: negative (inactive)
[3]
  carcinogen call: negative (inactive)
[4]
  TD50: 105 mg/kg/day (inactive)
[5]
  carcinogen call: negative (inactive)
[6]
  carcinogen call: negative (inactive)
mouse, strain B6C3F1, females, by gavage, site: liver, lesion: hepatocellular adenoma + hepatocellular carcinoma + neoplastic nodule, dosed 103 weeks, study length 104 weeks
  TD50: 2160 mg/kg/day
mouse, strain B6C3F1, females, by gavage, site: liver, lesion: hepatocellular adenoma + hepatocellular carcinoma, dosed 103 weeks, study length 104 weeks
  TD50: 2160 mg/kg/day
[7]
  TD50: 283 mg/kg/day (inactive)
[8]
  carcinogen call: negative (inactive)
[9]
  TD50: 283 mg/kg/day (inactive)
mouse, strain B6C3F1, males, by gavage, site: any site (literature study), lesion: several types, types named in the paper, dosed 103 weeks, study length 104 weeks
  TD50: 3330 mg/kg/day (inactive)
mouse, strain B6C3F1, males, by gavage, site: liver, lesion: hepatocellular adenoma + hepatocellular carcinoma + neoplastic nodule, dosed 103 weeks, study length 104 weeks
  TD50: 3700 mg/kg/day
[10]
  TD50: 17 mg/kg/day (inactive)
[11]
  TD50: 56.2 mg/kg/day (inactive)
[12]
  TD50: 120 mg/kg/day (inactive)
rat, strain Fischer 344, females, by gavage, site: adrenal medulla + pituitary gland, anterior, lesion: pheochromocytoma + adenoma, NOS, dosed 103 weeks, study length 104 weeks
  TD50: 247 mg/kg/day
rat, strain Fischer 344, females, by gavage, site: adrenal medulla, lesion: pheochromocytoma, dosed 103 weeks, study length 104 weeks
  TD50: 805 mg/kg/day
rat, strain Fischer 344, females, by gavage, site: any site (literature study), lesion: several types, types named in the paper, dosed 103 weeks, study length 104 weeks
  TD50: 576 mg/kg/day
rat, strain Fischer 344, females, by gavage, site: pituitary gland, anterior, lesion: adenoma, NOS, dosed 103 weeks, study length 104 weeks
  TD50: 343 mg/kg/day
rat, strain Fischer 344, males, by gavage, site: adrenal medulla + multiple organs + pancreas + preputial gland, lesion: pheochromocytoma + pheochromocytoma, malignant + mononuclear-cell leukemia + acinar-cell adenoma + adenoma, NOS + carcinoma, NOS, dosed 103 weeks, study length 104 weeks
  TD50: 157 mg/kg/day
rat, strain Fischer 344, males, by gavage, site: adrenal medulla, lesion: pheochromocytoma + pheochromocytoma, malignant, dosed 103 weeks, study length 104 weeks
  TD50: 394 mg/kg/day
rat, strain Fischer 344, males, by gavage, site: any site (literature study), lesion: several types, types named in the paper, dosed 103 weeks, study length 104 weeks
  TD50: 136 mg/kg/day
rat, strain Fischer 344, males, by gavage, site: multiple organs + tunica albuginea, lesion: mesothelioma, malignant + mesothelioma, NOS, dosed 103 weeks, study length 104 weeks
  TD50: 3200 mg/kg/day
rat, strain Fischer 344, males, by gavage, site: multiple organs, lesion: mononuclear-cell leukemia, dosed 103 weeks, study length 104 weeks
  TD50: 401 mg/kg/day
rat, strain Fischer 344, males, by gavage, site: pancreas, lesion: acinar-cell adenoma, dosed 103 weeks, study length 104 weeks
  TD50: 345 mg/kg/day
rat, strain Fischer 344, males, by gavage, site: pituitary gland, anterior, lesion: adenoma, NOS, dosed 103 weeks, study length 104 weeks
  TD50: 333 mg/kg/day
rat, strain Fischer 344, males, by gavage, site: preputial gland, lesion: adenoma, NOS + carcinoma, NOS, dosed 103 weeks, study length 104 weeks
  TD50: 1580 mg/kg/day
rat, strain Fischer 344, males, by gavage, site: preputial gland, lesion: adenoma, NOS, dosed 103 weeks, study length 104 weeks
  TD50: 1710 mg/kg/day
rat, strain Fischer 344, males, by gavage, site: subcutaneous tissue, lesion: fibroma + neurofibroma, dosed 103 weeks, study length 104 weeks
  TD50: 1900 mg/kg/day
rat, strain Fischer 344, males, by gavage, site: subcutaneous tissue, lesion: fibroma, dosed 103 weeks, study length 104 weeks
  TD50: 2200 mg/kg/day
rat, strain Fischer 344, males, by gavage, site: subcutaneous tissue, lesion: fibrosarcoma + fibroma + neurofibroma + sarcoma, NOS, dosed 103 weeks, study length 104 weeks
  TD50: 1730 mg/kg/day
rat, strain Fischer 344, males, by gavage, site: testis, lesion: interstitial-cell tumor, dosed 103 weeks, study length 104 weeks
  TD50: 240 mg/kg/day

## CC(C)(c1ccc(O)cc1)c1ccc(O)cc1
mouse, strain B6C3F1, females, in feed, site: any site (literature study), lesion: several types, types named in the paper, dosed 103 weeks, study length 107 weeks
  carcinogen call: negative (inactive)
mouse, strain B6C3F1, females, in feed, site: liver, lesion: hepatocellular adenoma + hepatocellular carcinoma + neoplastic nodule, dosed 103 weeks, study length 107 weeks
  TD50: 13100 mg/kg/day
mouse, strain B6C3F1, females, in feed, site: lung, lesion: alveolar/bronchiolar adenoma + alveolar/bronchiolar carcinoma, dosed 103 weeks, study length 107 weeks
  TD50: 41400 mg/kg/day
mouse, strain B6C3F1, males, in feed, site: all sites, lesion: leukemia + lymphoma, dosed 103 weeks, study length 107 weeks
  TD50: 445 mg/kg/day (inactive)
mouse, strain B6C3F1, males, in feed, site: all sites, lesion: lymphoma, dosed 103 weeks, study length 107 weeks
  TD50: 508 mg/kg/day
mouse, strain B6C3F1, males, in feed, site: any site (literature study), lesion: several types, types named in the paper, dosed 103 weeks, study length 107 weeks
  TD50: 1.32e+06 mg/kg/day
mouse, strain B6C3F1, males, in feed, site: pituitary gland, lesion: chromophobe carcinoma, dosed 103 weeks, study length 107 weeks
  TD50: 6690 mg/kg/day
rat, strain Fischer 344, females, in feed, site: any site (literature study), lesion: several types, types named in the paper, dosed 103 weeks, study length 108 weeks
  carcinogen call: negative (inactive)
rat, strain Fischer 344, females, in feed, site: liver, lesion: hepatocellular adenoma + hepatocellular carcinoma + neoplastic nodule, dosed 103 weeks, study length 108 weeks
  TD50: 595 mg/kg/day
rat, strain Fischer 344, males, in feed, site: mammary gland, lesion: fibroadenoma, dosed 103 weeks, study length 108 weeks
  TD50: 675 mg/kg/day (inactive)

## CCCCNN
mouse, strain Swiss albino, females, in drinking water, site: lung, lesion: adenocarcinoma, dosed 119 weeks, study length 119 weeks
  TD50: 50.6 mg/kg/day
mouse, strain Swiss albino, females, in drinking water, site: lung, lesion: adenoma, dosed 119 weeks, study length 119 weeks
  TD50: 19.3 mg/kg/day
mouse, strain Swiss albino, females, in drinking water, site: lung, lesion: several types, types named in the paper, dosed 119 weeks, study length 119 weeks
  TD50: 18.4 mg/kg/day
mouse, strain Swiss albino, males, in drinking water, site: lung, lesion: adenoma, dosed 100 weeks, study length 100 weeks
  TD50: 8.4 mg/kg/day
mouse, strain Swiss albino, males, in drinking water, site: lung, lesion: several types, types named in the paper, dosed 100 weeks, study length 100 weeks
  TD50: 9.03 mg/kg/day

## COc1cccc(O)c1O
rat, strain F344/DuCrj, males, in feed, site: forestomach, lesion: squamous-cell papilloma, dosed 51 weeks, study length 51 weeks
  TD50: 425 mg/kg/day
rat, strain F344/DuCrj, males, in feed, site: stomach, glandular, lesion: adenoma, dosed 51 weeks, study length 51 weeks
  TD50: 48.7 mg/kg/day

## CCCCN(CC)C(=O)SCCC
[1]
  TD50: 219 mg/kg/day (inactive)
[2]
  carcinogen call: negative (inactive)
[3]
  TD50: 113 mg/kg/day (inactive)
[4]
  carcinogen call: negative (inactive)
[5]
  carcinogen call: negative (inactive)
[6]
  carcinogen call: negative (inactive)
[7]
  TD50: 251 mg/kg/day (inactive)
[8]
  carcinogen call: negative (inactive)
[9]
  TD50: 267 mg/kg/day (inactive)
[10]
  carcinogen call: negative (inactive)
[11]
  carcinogen call: negative (inactive)
[12]
  carcinogen call: negative (inactive)

## CC(=O)CN(N=O)C(=O)NCCCl
hamster, strain Syrian Golden, females, by gavage, site: spleen, lesion: all vascular tumors, dosed 43 weeks, study length 75 weeks
  TD50: 0.774 mg/kg/day
hamster, strain Syrian Golden, males, by gavage, site: spleen, lesion: hemangiosarcoma, dosed 43 weeks, study length 75 weeks
  TD50: 0.216 mg/kg/day
rat, strain Fischer 344, females, by gavage, site: liver, lesion: one or several types, types not named, dosed 30 weeks, study length 104 weeks
  TD50: 1.36 mg/kg/day
rat, strain Fischer 344, females, by gavage, site: nervous system, lesion: one or several types, types not named, dosed 30 weeks, study length 104 weeks
  TD50: 4.49 mg/kg/day
rat, strain Fischer 344, females, in drinking water, site: lung, lesion: one or several types, types not named, dosed 30 weeks, study length 104 weeks
  TD50: 4.49 mg/kg/day
rat, strain Fischer 344, females, in drinking water, site: nervous system, lesion: one or several types, types not named, dosed 30 weeks, study length 104 weeks
  TD50: 4.49 mg/kg/day
rat, strain Fischer 344, males, by gavage, site: lung, lesion: one or several types, types not named, dosed 30 weeks, study length 104 weeks
  TD50: 3.14 mg/kg/day
rat, strain Fischer 344, males, by gavage, site: nervous system, lesion: one or several types, types not named, dosed 30 weeks, study length 104 weeks
  TD50: 0.951 mg/kg/day
rat, strain Fischer 344, males, in drinking water, site: liver, lesion: one or several types, types not named, dosed 30 weeks, study length 104 weeks
  TD50: 3.14 mg/kg/day
rat, strain Fischer 344, males, in drinking water, site: lung, lesion: one or several types, types not named, dosed 30 weeks, study length 104 weeks
  TD50: 1.5 mg/kg/day
rat, strain Fischer 344, males, in drinking water, site: nervous system, lesion: one or several types, types not named, dosed 30 weeks, study length 104 weeks
  TD50: 3.14 mg/kg/day
